Measured values: patent publication US4179516A, “Ethers of 3,4-dihydro-1-benzoxepin-5-one oxime to treat intestinal disorders” (Albert Rolland, S.A., priority 1973, dated 1979)
Where two headings read alike, the source gives them in different places.

Assays:
[1] = according to the authors of Collection Czechoslov. Chem. Common 37 868-886 (1972); cited from earlier work
[2] = test system: guinea pig ileum; assay: Relaxant activity in vitro on isolated organ: anti-acetylcholine (guinea pig ileum); details: Tyrode solution, 37° C., acetyl choline
Procedure: (§1) The tests were carried out on acid addition salts of the amines of the general formula.
(§2) For tests on the isolated organ: An organ fragment of rat duodenum or guinea pig ileum is kept alive in 50 ml of oxygenated and thermostatically controlled (37° C.) Tyrode solution. The activity of the compounds is tested on the spontaneous movements of the organ and the contractions produced by the addition of solution of barium chloride or acetyl choline to the bath. The movements were recorded on a DMP 4A Roucaire physiograph.

[3] = test system: rat duodenum; assay: Relaxant activity in vitro on isolated organ: decontraction (rat duodenum); details: Tyrode solution, 37° C.
Procedure: as §1, §2

[4] = test system: smooth intestinal muscle fibre (terminal part of the duodenum); assay: In vivo relaxant activity on smooth intestinal muscle in the anaesthetised (chloralosed) dog, balloon in terminal duodenum; details: 2 mg/kg intravenously, compared with atropine
Procedure: as §1
For the in vivo tests: a balloon is introduced into the chloralosed animal at the level of the terminal part of the duodenum and the intestinal movements are recorded on a Beckman polygraph with the acid of Statham PM 97 gauge.

[5] = in vivo; details: mouse, male Swiss C.D. mice, acid addition salts
Procedure: as §1
The acute toxicity was determined in male Swiss C.D. mice weighing an average of 20 grammes, after oral administration (P.O) and intravenous administration (I.V.).

[6] = intravenous, read-out: Toxicity in mice LD50 I.V
[7] = oral, read-out: Toxicity in mice LD50 P.O.

Compound: CN(C)CCON=C1CCCOc2cc(Cl)ccc21
- spasmolytic action [1]: weak spasmolytic action

Compound: CN1[C@@H]2CC[C@H]1C[C@@H](OC(=O)C(CO)c1ccccc1)C2 (stereo partly shown) [ATROPINE, reference compound]
- Minimum active dose concentration, Anti-Acetyl-Cholire (guinea pig ileum) [2]: 0.006 µg/mL
- Minimum active dose concentration, Decontraction (rat duodenum) [3]: inactive

Compound: CN(C)CCON=C1CCCOc2ccc(Cl)cc21 [Example 1, 7-chloro-3,4-dihydro-1-benzoxepin-O-(dimethylaminoethyl)-5-one oxime]
- Minimum active dose concentration, Anti-Acetyl-Cholire (guinea pig ileum) [2]: 5.5 µg/mL
- effect as regards the reduction in muscle tone and intestinal peristalsis [4]: comparable with or even superior to that of atropine
- LD50 [5, 6]: 32 mg/kg
- LD50 [5, 7]: 150 mg/kg
- Minimum active dose concentration, Decontraction (rat duodenum) [3]: 0.06 µg/mL

Compound: CCN(CC)CCO/N=C1/CCCOc2ccc(Cl)cc21 [Example 2, 7-chloro-3,4-dihydro-1-benzoxepin-O-(diethylaminoethyl)-5-one oxime: isomer with the cis configuration in relation to the benzene nucleus]
- Minimum active dose concentration, Anti-Acetyl-Cholire (guinea pig ileum) [2]: 1 µg/mL
- effect as regards the reduction in muscle tone and intestinal peristalsis [4]: comparable with or even superior to that of atropine
- LD50 [5, 6]: 37 mg/kg
- LD50 [5, 7]: 420 mg/kg
- Minimum active dose concentration, Decontraction (rat duodenum) [3]: 0.1 µg/mL

Compound: Clc1ccc2c(c1)C(=NOCCN1CCOCC1)CCCO2 [Example 6, 7-chloro-3,4-dihydro-1-benzoxepin-O-(morpholinoethyl)-5-one oxime]
- Minimum active dose concentration, Anti-Acetyl-Cholire (guinea pig ileum) [2]: 5.5 µg/mL
- LD50 [5, 6]: 120 mg/kg
- LD50 [5, 7]: > 1000 mg/kg
- Minimum active dose concentration, Decontraction (rat duodenum) [3]: 0.15 µg/mL

Compound: Clc1ccc2c(c1)C(=NOCCN1CCCC1)CCCO2 [Example 7, 7-chloro-3,4-dihydro-1-benzoxepin-O-(1-pyrrolidinyl-ethyl)-5-one oxime]
- Minimum active dose concentration, Anti-Acetyl-Cholire (guinea pig ileum) [2]: 1.3 µg/mL
- effect as regards the reduction in muscle tone and intestinal peristalsis [4]: comparable with or even superior to that of atropine
- LD50 [5, 6]: 35 mg/kg
- LD50 [5, 7]: 450 mg/kg
- Minimum active dose concentration, Decontraction (rat duodenum) [3]: 1.5 µg/mL

Compound: CN(C)CCCON=C1CCCOc2ccc(Cl)cc21 [Example 8, 7-chloro-3,4-dihydro-1-benzoxepin-O-(dimethylaminopropyl)-5-one oxime]
- Minimum active dose concentration, Anti-Acetyl-Cholire (guinea pig ileum) [2]: 3.5 µg/mL
- effect as regards the reduction in muscle tone and intestinal peristalsis [4]: comparable with or even superior to that of atropine
- LD50 [5, 6]: 60 mg/kg
- LD50 [5, 7]: 500 mg/kg
- Minimum active dose concentration, Decontraction (rat duodenum) [3]: 0.12 µg/mL

Compound: COc1ccc2c(c1)C(=NOCCN(C)C)CCCO2 [Example 9, 7-methoxy-3,4-dihydro-1-benzoxepin-O-(dimethylaminoethyl)-5-one oxime]
- Minimum active dose concentration, Anti-Acetyl-Cholire (guinea pig ileum) [2]: 1.5 µg/mL
- LD50 [5, 6]: 35 mg/kg
- LD50 [5, 7]: 500 mg/kg
- Minimum active dose concentration, Decontraction (rat duodenum) [3]: 0.12 µg/mL

Compound: CCN(CC)CCON=C1CCCOc2ccc(OC)cc21 [Example 10, 7-methoxy-3,4-dihydro-1-benzoxepin-O-(diethylaminoethyl)-5-one oxime]
- Minimum active dose concentration, Anti-Acetyl-Cholire (guinea pig ileum) [2]: 0.5 µg/mL
- LD50 [5, 6]: 45 mg/kg
- LD50 [5, 7]: 450 mg/kg
- Minimum active dose concentration, Decontraction (rat duodenum) [3]: 0.5 µg/mL

Compound: COc1ccc2c(c1)C(=NOCCCN(C)C)CCCO2 [Example 11]
- Minimum active dose concentration, Anti-Acetyl-Cholire (guinea pig ileum) [2]: 2.0 µg/mL
- LD50 [5, 7]: > 1000 mg/kg
- Minimum active dose concentration, Decontraction (rat duodenum) [3]: 0.3 µg/mL

Compound: CCN(CC)CCON=C1CCCOc2ccc(Br)cc21 [Example 12, 7-bromo-3,4-dihydro-1-benzoxepin-O-(diethylaminoethyl)-5-one oxime]
- Minimum active dose concentration, Anti-Acetyl-Cholire (guinea pig ileum) [2]: 1 µg/mL
- effect as regards the reduction in muscle tone and intestinal peristalsis [4]: comparable with or even superior to that of atropine
- LD50 [5, 6]: 40 mg/kg
- LD50 [5, 7]: 250 mg/kg
- Minimum active dose concentration, Decontraction (rat duodenum) [3]: 0.1 µg/mL
